Measured values published in patent US6770747B1, “Genes encoding protein having activity of transferring sugar onto aurone” (Suntory Limited, priority 1999, dated 2004).
Entries after “also recorded” stand apart in the source; their conditions may differ.

Key:
[1] = molecular target: T1, flavonoid-3-glycosyl transferase derived from gentians (Gentiana triflora, UniProt Q96493); conditions: substance used as substrate; enzyme expressed in E coli; cited from earlier work
T1 construct: host or cells: E. coli
T1 sequence (Q96493 1-453): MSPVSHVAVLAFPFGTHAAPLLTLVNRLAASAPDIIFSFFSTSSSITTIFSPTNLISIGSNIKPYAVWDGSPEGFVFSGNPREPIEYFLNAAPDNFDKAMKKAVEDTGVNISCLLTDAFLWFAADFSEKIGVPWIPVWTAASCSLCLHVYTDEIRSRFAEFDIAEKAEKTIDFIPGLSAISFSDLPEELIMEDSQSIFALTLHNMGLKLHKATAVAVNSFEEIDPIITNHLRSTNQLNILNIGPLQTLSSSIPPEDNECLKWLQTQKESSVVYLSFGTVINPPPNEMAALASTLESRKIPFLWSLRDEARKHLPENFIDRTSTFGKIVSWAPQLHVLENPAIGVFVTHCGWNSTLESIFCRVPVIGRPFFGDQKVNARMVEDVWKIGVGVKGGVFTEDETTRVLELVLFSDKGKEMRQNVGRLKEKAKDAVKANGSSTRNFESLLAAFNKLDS

[2] = tested on: product of the pS.b UFGT1 gene; assay: Glycosyl transferase activity of pS.b UFGT1 gene product (crude E. coli extract, UDP-glucose, HPLC); assay type: biochemical, Scutellaria baicalensis; conditions: crude enzyme solution, 30° C., HPLC detection of glycosides
Experimental: The activity of the pS.b UFGT1 gene derived from Scutellaria baicalensis of transferring a glycosyl group to aurones was determined using an expression vector pESBGT-1 in E. coli prepared by the following method.
The PCR product was digested with NdeI and BamHI, and then was ligated to the NdeI- and BamHI-digested pET-3a vector (Stratagene) to construct pESBGT-1 (FIG. 1). Using each of pESBGT-1 and pET-3a vector, it was transformed into Epicurian Coli BL21 (DE3) (Stratagene). The transformants were incubated overnight at 37° C. in 3 ml of a LB medium containing 50 μg/ml of ampicillin. The preculture (500 μl) was added to 50 ml of a LB medium containing 50 μg/ml of ampicillin, and cultured until A600 reached 0.6-1.0. Then isopropyl-β-D-thiogalactopyranoside (IPTG) was added thereto to a final concentration of 0.5 mM, which was cultured at 28° C. for 4 hours and centrifuged (5000 rpm, 10 minutes, 4° C.) to collect the cells.
The pellets were suspended in 5 ml of the buffer (10 mM sodium phosphate, pH 6.5, 1 mM β-mercaptoethanol (2-ME)). After the E. coli cells were disrupted by a sonicator, it was centrifuged (15,000 rpm, 5 minutes, […]), and the supernatant obtained was used as a crude enzyme solution for the next enzyme reaction.
In addition to aureusidin, the enzymatic activity was determined using naringenin or luteolin as the substrate.
To 50 μl of the crude enzyme solution were added 0.1 M Tris-HCl, pH 8.0, and 150 μl of 0.05% 2-ME, and then incubated at 30° C. for 10 minutes. Then 5 μl of 4.66 mM aureusidin and 50 μl of 5 mM UDP-glucose were added thereto, and was allowed to react at 30° C. for 1 hour. […] The filtrate was analyzed by high performance liquid chromatography. […]
To 20 μl of the crude enzyme solution were added 25 μl of 0.1 M citric acid-phosphate buffer, pH 6.5, 5 μl each of 5 μM substrate, and 25 μl of 5 mM UDP-glucose in a total volume of 250 μl, and then incubated at 30° C. for 30 minutes. […] The filtrate was analyzed by high performance liquid chromatography. […]

AmGT1 = assay: Glycosyl transferase activity of the AmGT1 cDNA recombinant protein; assay type: biochemical, snapdragons (Antirrhinum majus); conditions: crude extract, UDP-glucose, HPLC, as in Example 1
Experimental: (§1) To 50 μl of the crude enzyme solution were added 0.1 M Tris-HCl, pH 8.0, and 150 μl of 0.05% 2-ME, and then incubated at 30° C. for 10 minutes. Then 5 μl of 4.66 mM aureusidin and 50 μl of 5 mM UDP-glucose were added thereto, and was allowed to react at 30° C. for 1 hour. After the reaction was stopped by adding 200 μl of 90% acetonitrile containing 5% trifluoroacetic acid (TFA), it was centrifuged at 15,000 rpm and 4° C. for 3 minutes. The supernatant thus obtained was filtered (pore size 0.45 μm, 4 mm Millex-LH, Millipore) to remove insoluble substances. The filtrate was analyzed by high performance liquid chromatography.
(§2) The analytical condition was as follows: The column used was Asahipak-ODP-50 (4.6 mm φ×250 mm, Showa Denko). The mobile phase comprised water containing 0.1% TFA as solution A and 90% CH3CN containing 0.1% TFA as solution B. After a linear gradient from 20% solution B to 100% solution B for 20 minutes, 100% solution B was retained for 5 minutes. The flow rate was 0.6 ml/min. Detection used A380 nm, and an absorption spectrum at 250-400 nm using Shimadzu PDA detector SPD-M6A.
The transformant obtained in Example 4 was cultured, extracted and the enzymatic activity was measured as in Example 1.

Ph7GTa = assay: Glycosyl transferase activity of Ph7GTa cDNA recombinant protein; assay type: biochemical, petunia (Petunia hybrida); conditions: crude extract, UDP-glucose, HPLC, as in Example 1
Experimental: as §1, §2
(§3) The transformants obtained in Example 8 were cultured, extracted and the enzymatic activity was measured as in Example 1. The enzymatic activity was measured using aureusidin as the substrate. […]

Ph7GTb = assay: Glycosyl transferase activity of Ph7GTb cDNA recombinant protein; assay type: biochemical, petunia (Petunia hybrida); conditions: crude extract, UDP-glucose, HPLC, as in Example 1
Experimental: as §1, §2, §3

[3] = molecular target: T2, flavonoid-3-glycosyl transferase derived from grapes (Vitis vinifera, UniProt P51094); conditions: substance used as substrate; activity determined in E. coli; cited from earlier work
T2 construct: host or cells: E. coli
T2 sequence (P51094 1-456): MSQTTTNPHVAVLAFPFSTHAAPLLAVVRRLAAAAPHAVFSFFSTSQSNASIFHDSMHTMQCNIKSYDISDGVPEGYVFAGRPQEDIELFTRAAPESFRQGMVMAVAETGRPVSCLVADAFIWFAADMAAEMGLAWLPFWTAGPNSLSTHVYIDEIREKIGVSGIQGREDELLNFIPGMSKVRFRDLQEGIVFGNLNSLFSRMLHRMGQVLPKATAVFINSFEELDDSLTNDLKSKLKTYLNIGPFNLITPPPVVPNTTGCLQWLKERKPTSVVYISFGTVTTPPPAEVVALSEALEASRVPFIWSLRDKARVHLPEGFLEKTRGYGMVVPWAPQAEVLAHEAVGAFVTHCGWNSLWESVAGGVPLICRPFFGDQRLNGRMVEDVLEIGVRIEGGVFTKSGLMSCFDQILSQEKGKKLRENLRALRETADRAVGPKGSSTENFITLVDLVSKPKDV

[4] = tested on: product of the pS.b UFGT1 gene; conditions: substrate baicalein; cited from earlier work

| Compound | glycosyl transferase activity relative to a 100% activity to delphinidins [1] | glycosilation of the substrate by the pS.b UFGT1 product [2] | also measured |
| --- | --- | --- | --- |
| O=c1c(O)c(-c2ccc(O)cc2)oc2cc(O)cc(O)c12 [kaempferol] | 7.0% | – | – |
| O=c1c(O)c(-c2cc(O)c(O)c(O)c2)oc2cc(O)cc(O)c12 [myricetin] | 4.4% | – | – |
| O=C1/C(=C/c2ccc(O)c(O)c2)Oc2cc(O)cc(O)c21 [aureusidin] | – | can glycosilate | glycosyl transfer to the substrate by AmGT1 (AmGT1): can transfer a glycosyl group to the positions 6 and 4; glycosilation of the substrate by Ph7GTa (Ph7GTa): activity of glycosilating; glycosilation of the substrate by Ph7GTb (Ph7GTb): activity of glycosilating |
| cyanidins | 61% | – | Km [3]: 30 µM; Vmax [3]: 905 nkatals/mg |
| O=c1cc(-c2ccccc2)oc2cc(O)c(O)c(O)c12 [baicalein] | – | – | portion detected as 7 glycoside after the reaction is complete [4]: ~100% |
| O=c1cc(-c2ccc(O)c(O)c2)oc2cc(O)cc(O)c12 [luteolin] | – | can glycosilate | – |
| O=C1C[C@@H](c2ccc(O)cc2)Oc2cc(O)cc(O)c21 [naringenin] | – | very little effect; also recorded: no reaction occurred | – |
| O=c1c(O)c(-c2ccc(O)c(O)c2)oc2cc(O)cc(O)c12 [quercetin] | 6.5% | – | Km [3]: 15 µM; Vmax [3]: 18.9 nkatals/mg |
| pelargonidins | 38% | – | – |
| delphinidins | 100% | – | – |
